In patent US5387599A, “Triazoles, their production and use” (Takeda Chemical Industries, Ltd., priority 1990, dated 1995):
Structures can show the parent of a compound that is named as a salt.

Columns and labels:
[1] = tested on: Erysiphe graminis; assay: preventive effect against powdery mildew of barley (Experimental Method 1); assay type: in vivo, Erysiphe graminis (on barley); details: 200 ppm; barley seedling, 8 days after inoculation
Procedure: Experimental Method 1 Experiment for preventive effect against powdery mildew of barley (Erysiphe graminis) […] The resultant solution was diluted with water to obtain a predetermined concentration of the active ingredient. To this diluted solution was added a sticker Dyne®[manufactured by Takeda Chemical Industries, Ltd., and including polyoxyethylenenonylphenylether (10 wt. %) and potassium ligninsulfonate (10 wt. %)] in a ratio of 0.03 wt. % (end concentration) to prepare a spray. Thus obtained spray was sprayed to a barley seedling (about one week seeding) such that the spray was dripped from the seedling. After air-drying, the spore of susceptible leaf with Erysiphe graminis was forcibly deposited for inoculation. The spore was maintained at an artificial inoculation chamber at a temperature of 20° C. for 8 days after the inoculation. Thereafter, the area rate of lesion was examined to represent the preventive value by the following coefficient. […] Preventive value 2: area rate of lesion 11-20% Preventive value 1: area rate of lesion 21-50% Preventive value 0: area rate of lesion 51% or more

[2] = tested on: Microsporum gypseum IFO 6075; assay: paper disk growth inhibition on agar (antifungal spectrum); assay type: cell-based; details: Nannizzia gypsea, IFO6075, 48 h, medium B (Sabouraud's agar), 1000 μg/ml, 8 mm disk, 2 days, 28° C., read-out: Diameter of growth inhibition zone
Procedure: (§1) Evaluation for fungicidal acitivity of the compound (I) was carried out by the following method.
(§2) A paper disk (manufactured by TOYO SEISAKUSHO, 8mm in diameter) dipped into a methanol solution containing the compound (I) in an amount of 1000 μg/ml was placed on an agar plate containing various fungi. After the cultivation of said fungi for two days at 28° C., mesurement was made to the diameter of a growth inhibiton zone produced around the paper disk.

[3] = tested on: Trichophyton rubrum IFO 6467; assay: as above; assay type: cell-based; details: IFO6467, 48 h, medium B (Sabouraud's agar), 1000 μg/ml, 8 mm disk, 2 days, 28° C., read-out: Diameter of growth inhibition zone
Procedure: as §1, §2

[4] = tested on: Trichophyton methagrophytes IFO 7522; assay: as above; assay type: cell-based; details: IFO7522, 48 h, medium B (Sabouraud's agar), 1000 μg/ml, 8 mm disk, 2 days, 28° C., read-out: Diameter of growth inhibition zone
Procedure: as §1, §2

[5] = tested on: Aspergillus fumigatus IFO 6344; assay: as above; assay type: cell-based; details: IFO6344, 48 h, medium A (yeast nitrogen base agar, pH 7.0), 1000 μg/ml, 8 mm disk, 2 days, 28° C., read-out: Diameter of growth inhibition zone
Procedure: as §1
as §2, with “disk. The media used for the evaluation are as follows:” for “disk.”
(§3) A: Yeast nitrogen base agar (pH 7.0)

[6] = tested on: Aspergillus niger IFO 4066; assay: as above; assay type: cell-based; details: IFO4066, 48 h, medium A (yeast nitrogen base agar, pH 7.0), 1000 μg/ml, 8 mm disk, 2 days, 28° C., read-out: Diameter of growth inhibition zone
Procedure: as §1
as §2, with “disk. The media used for the evaluation are as follows:” for “disk.”
as §3

[7] = tested on: Candida albicans IFO 0583; assay: as above; assay type: cell-based; details: IFO0583, 48 h, medium A (yeast nitrogen base agar, pH 7.0), 1000 μg/ml, 8 mm disk, 2 days, 28° C., read-out: Diameter of growth inhibition zone
Procedure: as §1
as §2, with “disk. The media used for the evaluation are as follows:” for “disk.”
as §3

[8] = tested on: Cryptococcus neoformans IFO 0410; assay: as above; assay type: cell-based; details: IFO0410, 48 h, medium A (yeast nitrogen base agar, pH 7.0), 1000 μg/ml, 8 mm disk, 2 days, 28° C., read-out: Diameter of growth inhibition zone
Procedure: as §1
as §2, with “disk. The media used for the evaluation are as follows:” for “disk.”
as §3

[9] = tested on: Candida utilis IFO 0619; assay: as above; assay type: cell-based; details: Williopsis jadinii, IFO0619, 48 h, medium A (yeast nitrogen base agar, pH 7.0), 1000 μg/ml, 8 mm disk, 2 days, 28° C., read-out: Diameter of growth inhibition zone
Procedure: as §1
as §2, with “disk. The media used for the evaluation are as follows:” for “disk.”
as §3

[10] = tested on: Candida albicans; assay: protective effect against experimental infection in mice; details: in Mus musculus, 168 h
Procedure: 5-Week old Crj:CDF1 mice were inoculated with the minimum lethal dose of Candida albicans in its vein or abdominal cavity. A drug was administered once immediately after the infection or twice, i.e., immediately after and two hours after the infection. The drug effect was shown with ED50 value calculated by Reed and Muench method from the survival ratio on day 7 after infection. The ED50 value was calculated from the total dose.

[11] = tested on: Pyricularia oryzae; assay type: in vivo, Pyricularia oryzae (on rice); details: 200 ppm; rice seedling, 6 days after inoculation

CCN(CC)C(=S)S[C@H](C)[C@](O)(Cn1cncn1)c1ccc(F)cc1F (racemic) [Compound 1, [(2RS,3RS)-3-(2,4-difluorophenyl)-3-hydroxy-4-(1H-1,2,4-triazol-1-yl)-2butyl] N,N-diethyldithiocarbamate]
Preventive Value for Erysiphe graminis [1]: 3 (area rate of lesion 0-10%) | zone of inhibition at 1000 µg/mL [2]: 40 mm | zone of inhibition at 1000 µg/mL [3]: 35 mm | zone of inhibition at 1000 µg/mL [4]: 40 mm | zone of inhibition at 1000 µg/mL [5]: 45 mm | zone of inhibition at 1000 µg/mL [6]: 28 mm | zone of inhibition at 1000 µg/mL [7]: 40 mm | zone of inhibition at 1000 µg/mL [8]: 35 mm | zone of inhibition at 1000 µg/mL [9]: 32 mm | ED50 ([10]; sc): 2 mg/kg | Preventive Value for Pyricularia oryzae [11]: 3 (area rate of lesion 0-14%)

CCN(CC)C(=S)S[C@H](C)[C@](O)(Cn1cncn1)c1ccc(F)cc1F.Cl [Compound 2, [(2R,3R)-3-(2,4-difluorophenyl)-3-hydroxy-4-(1H-1,2,4-triazol-1-yl)-2-butyl] N,N-diethyldithiocarbamate hydrochloride]
Preventive Value for Erysiphe graminis [1]: 3 (area rate of lesion 0-10%) | zone of inhibition at 1000 µg/mL [2]: 48 mm | zone of inhibition at 1000 µg/mL [3]: 40 mm | zone of inhibition at 1000 µg/mL [4]: 48 mm | zone of inhibition at 1000 µg/mL [5]: 50 mm | zone of inhibition at 1000 µg/mL [6]: 35 mm | zone of inhibition at 1000 µg/mL [7]: 30 mm | zone of inhibition at 1000 µg/mL [8]: 30 mm | zone of inhibition at 1000 µg/mL [9]: 40 mm | ED50 ([10]; po): 0.5 mg/kg | Preventive Value for Pyricularia oryzae [11]: 3 (area rate of lesion 0-14%)

Cc1cccc(N(C)C(=S)S[C@H](C)[C@](O)(Cn2cncn2)c2ccc(F)cc2F)c1 [Compound 9, [(2R,3R)-3-(2,4-difluorophenyl)-3-hydroxy-4-(1H,1,2,4-triazol-1-yl)-2-butyl] N-methyl-N-(3-methylphenyl) dithiocarbamate hydrochloride]
zone of inhibition at 1000 µg/mL [2]: 20 mm | zone of inhibition at 1000 µg/mL [3]: 30 mm | zone of inhibition at 1000 µg/mL [4]: 15 mm | zone of inhibition at 1000 µg/mL [5]: 15 mm | zone of inhibition at 1000 µg/mL [6]: 13 mm | zone of inhibition at 1000 µg/mL [7]: 25 mm | zone of inhibition at 1000 µg/mL [8]: 20 mm | zone of inhibition at 1000 µg/mL [9]: 20 mm | ED50 ([10]; po): 2 mg/kg
